Measurements from patent US8034756B2, “Formulations with unexpected cleaning performance incorporating a biodegradable chelant” (Dow Global Technologies LLC, priority 2006, dated 2011).
Entries after “also recorded” stand apart in the source; their conditions may differ.

What was measured:
[1] = overall constant, log of [metal complex]/([free metal][free ligand]); cited from earlier work
[2] = overall constant, log of [metal complex]/([free metal][free ligand]); cited from earlier work; remark: listed apart in the source
[3] = overall constant, log of [metal complex]/([free metal][free ligand]); cited from earlier work; remark: listed apart in the source
[4] = Calcium oxalate titration; assay type: physicochemical; details: pH about 11.6; titrated with 0.5 M CaCl2 to first faint permanent turbidity
Description: The primary metal present in the standard ASTM soil is calcium. One method of estimating the calcium control performance of a chelating agent is to perform a calcium titration that utilizes the tendency to produce a calcium precipitate when a given amount of chelant can no longer control any additional added calcium, thus producing a visible precipitate. Using such a titration test, one normally deems the best chelants for calcium control as those that accept the most calcium before the precipitate appears per a given unit of chelating agent. A standard titration test often employed to determine a chelant's calcium control effectiveness is the calcium oxalate titration. In this titration, standard calcium chloride titrant is added to a measured amount of chelating agent and the onset of calcium oxalate precipitate (detected as the first permanent turbidity that forms) defines the amount of calcium that can be controlled. Strong chelants accept a mole-for-mole amount of calcium, while weaker chelants will accept less than a mole-for-mole amount of calcium in this titration. […]

[5] = ASTM D5343 cleaning performance of ceramic tile cleaners (number of strokes); details: ASTM D5343 tile cleaning test
Description: Cleaning formulations are prepared to contain the following (by weight): 2.62% Sodium dodecylbenzene sulfonic acid, 2.62% cocoamidopropyl betaine (Lonzaine C), 2.62% ethylene glycol butyl ether (Dowanol EB™), 3.2% of the chelant salt (except for the blank, which contains all components except the chelant), and the balance water. Thus the formulation of Example 31 contains 3.2% by weight of the chelant salt (in this case, K2HEIDA), and so on for Examples 32 and 33 which evaluate (K)1.8(Na)0.2(HEIDA), and (K)1.6(Na)0.4(HEIDA), respectively, as well as Comparative Examples 27-30 which evaluate the formulations containing Na4EDTA, Na2HEIDA, K4EDTA, and (K)1.0(Na)1.0(HEIDA), respectively.
The cleaning ability of these compositions is determined according to ASTM D5343, “Standard Guide for Evaluating Cleaning Performance of Ceramic Tile Cleaners:” using soiled white bathroom tiles as directed by the procedure. […] 10 ml of the cleaning formulation is placed on the face of a pre-moistened sponge, then the number of strokes (under 454 grams of force) are determined to achieve soil removal of 90% or greater. The number of strokes required by each formulation to obtain 90% or greater soil removal is recorded for each cleaning formulation.

[6] = Standard laboratory biodegradation tests (OECD 301A, 301B, 301D, 301E, 306); details: 301E and OECD 306 seawater test
Description: The above Log K values show the dramatically greater chelation strength of EDTA as compared to HEIDA. One would expect that the chelating agent with the greatest metal ion affinity (in this case, EDTA) would have the better performance for removing the soil containing Ca, Mg, and Fe3+.

[7] = CSMA DCC-16 scrubber test for removal of lime soap (panel rating); details: panel scale 0 to 5; 1 gram cleaning solution, 30 seconds, 6 cycles at 454 grams of force; formulation with 3.2% chelant salt
Description: Black ceramic tiles (meeting ANSI standard A371.1, 4¼″ square) are soiled as directed by the procedure described in […] Specialties Manufacturers Association DCC-16, (CSMA Detergents Division Test Methods Compendium—Third Edition—May 1995—Pages I-51 to I-55) “Guidelines for Evaluating the Efficacy of Bathroom Cleaners, Part 2: Scrubber Test for Measuring the Removal of Lime Soap.”. The principal metals present in the soil mixture used in the tile cleaning test are calcium, followed by magnesium, present as their highly insoluble stearate salts (soap scum). Cleaning solution formulations are prepared as described in the previous example. To the surface of the soiled tiles on the scrubbing apparatus, 1 gram of cleaning solution is sprayed and allowed to stand for 30 seconds. The tile is then scrubbed with a pre-moistened sponge with 454 grams of force for 6 cycles (total of 12 passes over the soiled tile). The tile is then rinsed with water and allowed to air dry. Panelists judge the cleanliness of the tiles on a scale from 0 to 5 (with “0” for completely dirty and “5” for completely cleaned), and the results of the observations are averaged.

Structure (SMILES)	Log K Mg [1]	Log K Ca [2]	Log K Fe3+ [3]	% Molar Chelation of calcium (max. = 100) [4] [%]	cleaning performance compared in words [5]	biodegradability [6]	Cleaning rating (higher is better) [7]
O=C(O)CN(CCN(CC(=O)O)CC(=O)O)CC(=O)O [EDTA, ethylene diamine tetraacetate]	8.7	10.7	25.1	100			
O=C([O-])CN(CCO)CC(=O)[O-].[K+].[K+] [Example K2HEIDA]					equal performance; also recorded: performs equally as well as K4EDTA	readily biodegradable	4.67 (+/−0.26)
O=C([O-])CN(CCN(CC(=O)[O-])CC(=O)[O-])CC(=O)[O-].[K+].[K+].[K+].[K+] [Example K4EDTA]							3.60 (+/−0.13)
